Experimental findings from patent publication US9937235B2, “Lipidated peptides as anti-obesity agents” (USTAV ORGANICKE CHEMIE A BIOCHEMIE AKADEMIE VED CR, V.V.I, priority 2012, dated 2018) are described below.

The subject of one test is fasted C57BL/6 mice. Put plainly: Food intake in fasted mice after SC administration. Type of test: in vivo, mouse. Conditions: fasted C57BL/6 mice, 5 mg/kg SC, 45 min. Summed up: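 Male C57BL/6 mice, food-deprived 17 h, received saline, PrRP or lipidated analogs either SC at 1-10 mg/kg or ICV into the third ventricle at 4 nmol/mouse.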
Test [1] concerns the target T1, human PrRP receptor, GPR10 (Homo sapiens, UniProt P49683).
T1 construct: host or cells: CHO cells
T1 sequence (P49683 1-370): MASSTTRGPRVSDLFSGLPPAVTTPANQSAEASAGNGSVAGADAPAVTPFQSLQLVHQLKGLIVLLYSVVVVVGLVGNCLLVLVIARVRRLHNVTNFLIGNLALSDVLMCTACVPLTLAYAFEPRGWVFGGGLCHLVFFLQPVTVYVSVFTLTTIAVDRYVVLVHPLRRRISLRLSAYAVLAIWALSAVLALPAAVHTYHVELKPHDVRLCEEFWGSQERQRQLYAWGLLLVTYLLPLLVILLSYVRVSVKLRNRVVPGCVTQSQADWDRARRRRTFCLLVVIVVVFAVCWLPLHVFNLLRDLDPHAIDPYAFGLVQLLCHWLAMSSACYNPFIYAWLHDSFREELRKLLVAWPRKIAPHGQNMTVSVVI
Put plainly: Competitive binding to CHO cells with transfected human GPR10. The conditions noted are these: CHO cells with transfected human GPR10, human ^125I—PrRP31. As for the experimental part:
Competitive binding experiments were performed according to Motulsky and Neubig (Motulsky, A., et al., “Analyzing radioligand binding data,” Curr Protoc Neurosci, Chapter 7, Unit 7.5, 2002).
CHO cells with transfected human PrRP receptor, GPR10 (Perkin Elmer, USA) were grown on 24-well plates coated with polyethyleneimine. The cells were grown to the optimal density of 40-80 thousand cells per well. The following agents were used for the experiment: binding buffer (25 mmol·l^−1 Tris, pH 7.4; 118 mmol·l^−1 NaCl, 10 mmol·l^−1 MgCl2, 1 mmol·l^−1 CaCl2, 5.5 mmol·l^−1 glucose, 0.5 mg/ml BSA), unlabelled analogs of PrRP of final concentration within 10^−11 to 10^−4 mol·l^−1, and human ^125I—PrRP31 of final concentration of 5×10^−11 mol·l^−1.
Plates were incubated for 60 minutes at room temperature. After incubation, the cells were solubilized in 0.1 mol/l solution of NaOH and the radioactivity bound to the cells was counted using a γ-counter. The experiments were performed in duplicate and repeated at least three times.
For evaluation of competitive binding experiments, the program Graph Pad Prism Software (San Diego, Calif., USA) was used. A method of nonlinear regression assuming one-site binding was used.

For orientation: Ki means a measure of affinity in units of concentration, obtained from inhibition or displacement. Higher therefore signals lower affinity.

Each structure is given as a SMILES string. Where a SMILES comes first, the peptide text is derived from it. [ ]: non-standard residue; d: D form. The star is where a group is joined. Lauroyl = CCCCCCCCCCCC(=O)*; Decanoyl = CCCCCCCCCC(=O)*; Nle = CCCC[C@H](N)C(=O)O

In the case of `CCCCCCCCCCCC(=O)N[C@H](C(=O)N1CCC[C@H]1C(=O)N[C@@H](CC(=O)O)C(=O)N[C@H](C(=O)N[C@@H](CC(N)=O)C(=O)N1CCC[C@H]1C(=O)N[C@@H](C)C(=O)N[C@@H](Cc1c[nH]c2ccccc12)C(=O)N[C@@H](Cc1ccc(O)cc1)C(=O)N[C@@H](C)C(=O)N[C@@H](CO)C(=O)N[C@@H](CCCNC(=N)N)C(=O)NCC(=O)N[C@H](C(=O)N[C@@H](CCCNC(=N)N)C(=O)N1CCC[C@H]1C(=O)N[C@H](C(=O)NCC(=O)N[C@@H](CCCNC(=N)N)C(=O)N[C@@H](Cc1ccccc1)C(N)=O)C(C)C)[C@@H](C)CC)[C@@H](C)CC)[C@@H](C)O` [Analog 54] (Lauroyl-TPDINPAWYASRGIRPVGRF-NH2), the “Food intake in mice (5 mg/kg SC) % saline-treated group (45 min)” value with fasted C57BL/6 mice is 85%. Also, the affinity in test [1], expressed as Ki, was 2.41 ± 0.26 nM.
As for `CCCC[C@H](NC(=O)[C@H](CO)NC(=O)[C@H](Cc1c[nH]cn1)NC(=O)[C@H](CCC(N)=O)NC(=O)[C@H](Cc1c[nH]cn1)NC(=O)[C@H](C)NC(=O)[C@H](CCCNC(=N)N)NC(=O)[C@@H](N)CO)C(=O)N[C@@H](CCC(=O)O)C(=O)N[C@H](C(=O)N[C@@H](CCCNC(=N)N)C(=O)N[C@H](C(=O)N1CCC[C@H]1C(=O)N[C@@H](CC(=O)O)C(=O)N[C@H](C(=O)N[C@@H](CC(N)=O)C(=O)N1CCC[C@H]1C(=O)N[C@@H](C)C(=O)N[C@@H](Cc1c[nH]c2ccccc12)C(=O)N[C@@H](Cc1ccc(O)cc1)C(=O)N[C@H](C(=O)NCC(=O)N[C@@H](CCCNC(=N)N)C(=O)NCC(=O)N[C@H](C(=O)N[C@@H](CCCNC(=N)N)C(=O)N1CCC[C@H]1C(=O)N[C@H](C(=O)NCC(=O)N[C@@H](CCCNC(=N)N)C(=O)N[C@@H](Cc1ccccc1)C(N)=O)C(C)C)[C@@H](C)CC)[C@@H](C)O)[C@@H](C)CC)[C@@H](C)O)[C@@H](C)O` [Analog 14] (H-SRAHQHS[Nle]ETRTPDINPAWYTGRGIRPVGRF-NH2), the “Food intake in mice (5 mg/kg SC) % saline-treated group (45 min)” value in the test on fasted C57BL/6 mice is given as 100%. Besides, in test [1], affinity was put at a Ki of 1.92 ± 0.43 nM.
As for `CCCCCCCCCC(=O)N[C@H](C(=O)N1CCC[C@H]1C(=O)N[C@@H](CC(=O)O)C(=O)N[C@H](C(=O)N[C@@H](CC(N)=O)C(=O)N1CCC[C@H]1C(=O)N[C@@H](C)C(=O)N[C@@H](Cc1c[nH]c2ccccc12)C(=O)N[C@@H](Cc1ccc(O)cc1)C(=O)N[C@@H](C)C(=O)N[C@@H](CO)C(=O)N[C@@H](CCCNC(=N)N)C(=O)NCC(=O)N[C@H](C(=O)N[C@@H](CCCNC(=N)N)C(=O)N1CCC[C@H]1C(=O)N[C@H](C(=O)NCC(=O)N[C@@H](CCCNC(=N)N)C(=O)N[C@@H](Cc1ccccc1)C(N)=O)C(C)C)[C@@H](C)CC)[C@@H](C)CC)[C@@H](C)O` [Analog 53] (Decanoyl-TPDINPAWYASRGIRPVGRF-NH2), the “Food intake in mice (5 mg/kg SC) % saline-treated group (45 min)” value with fasted C57BL/6 mice worked out at 100%. The affinity in test [1] corresponds to a Ki of 2.41 ± 0.26 nM.
